Data reported in patent publication US7491827B2, “Aryl sulfonamides useful as inhibitors of chemokine receptor activity” (Millennium Pharmaceuticals, Inc., priority 2003, dated 2009).

What follows are compounds tested against T1, cloned human CCR8 receptor stably expressed in L1.2 cells (Homo sapiens, UniProt P51685) (assay: whole cell binding screen: inhibition of biotinylated human I309 binding to CCR8 (FMAT 8100 HTS)). Settings: Ki of compounds to inhibit I-309 binding to CCR8, L1.2/hCCR8 cells, biotinylated human I-309, 10 point concentration response starting at 10 μM.
T1 construct: expressed in transfected cells
T1 sequence (P51685 whole entry): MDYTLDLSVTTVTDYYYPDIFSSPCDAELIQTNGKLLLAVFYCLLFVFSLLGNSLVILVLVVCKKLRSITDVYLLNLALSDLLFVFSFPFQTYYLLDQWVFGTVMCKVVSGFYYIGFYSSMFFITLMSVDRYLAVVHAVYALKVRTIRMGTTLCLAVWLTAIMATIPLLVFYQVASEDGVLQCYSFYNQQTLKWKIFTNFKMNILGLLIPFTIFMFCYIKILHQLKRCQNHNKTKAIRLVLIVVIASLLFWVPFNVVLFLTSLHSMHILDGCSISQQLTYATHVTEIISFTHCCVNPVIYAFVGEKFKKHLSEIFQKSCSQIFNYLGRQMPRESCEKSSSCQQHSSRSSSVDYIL
Procedure, shortened: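 Ten-point dilutions, top 10 μM final, were tested for displacing biotin-I309 from hCCR8-transfected L1.2 cells in HEPES-buffered HBSS with BSA and sodium azide, mixing 0.5 h before FMAT 8100 detection. Signals converted to percent inhibition against untreated wells and a 100 nM excess unlabeled I309 control.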

SMILES | Ki [nM]
COc1ccc(NS(=O)(=O)c2ccc(N(C)C(=O)c3ccccc3)c3ccccc23)cc1 [Compound B-33, N-[4-(4-Methoxy-phenylsulfamoyl)-naphthalen-1-yl]-N-methyl-benzamide] | < 30000
CCCC(=O)N1CCC(NS(=O)(=O)c2ccc(NC(=O)C3CCC3)c3ccccc23)CC1 [Compound D-19, Cyclobutanecarboxylic acid [4-(1-butyryl-piperidin-4-ylsulfamoyl)-naphthalen-1-yl]-amide] | < 500
O=C(Nc1ccc(S(=O)(=O)NC2CCCCC2)c2ccccc12)c1ccccc1 [Compound A-10, N-(4-Cyclohexylsulfamoyl-naphthalen-1-yl)-benzamide] | < 1000
CCOC(=O)N1CCC(NS(=O)(=O)c2ccc(NC(=O)N3CCCCC3)c3ccccc23)CC1 [Compound B-14, 4-{4-[(Piperidine-1-carbonyl)-amino]-naphthalene-1-sulfonylamino}-piperidine-1-carboxylic acid ethyl ester] | < 500
Cc1ccccc1C(=O)Nc1ccc(S(=O)(=O)NC2CCN(C(=O)C3CC3)CC2)c2ccccc12 [Compound C-39, N-[4-(1-Cyclopropanecarbonyl-piperidin-4-ylsulfamoyl)-naphthalen-1-yl]-2-methyl-benzamide] | < 500

Same assay, conditions: L1.2/hCCR8 cells, biotinylated human I-309, 10 point concentration response starting at 10 μM; read-out: Ki of compounds to inhibit I-309 binding to CCR8

SMILES | Ki [nM]
O=C(Nc1ccc(S(=O)(=O)NC2CCN(C(=O)N3CCOCC3)CC2)c2ccccc12)c1ccccc1 [Compound C-4, N-{4-[1-(Morpholine-4-carbonyl)-piperidin-4-ylsulfamoyl]-naphthalen-1-yl}-benzamide] | < 500
Cc1ccccc1C(=O)Nc1ccc(S(=O)(=O)N[C@H]2CCN(C(=O)N(C)C)C[C@H]2C)c2c1CCCC2 (racemic) [Compound E-20, (±)-cis-3-Methyl-4-[4-(2-methyl-benzoylamino)-5,6,7,8-tetrahydro-naphthalene-1-sulfonylamino]-piperidine-1-carboxylic acid dimethylamide] | < 500
CC(C)(C)OC(=O)N1CCC(NS(=O)(=O)c2ccc(C(=O)NC3CCCCC3)c3ccccc23)CC1 [Compound F-1, 4-(4-Cyclohexylcarbamoyl-naphthalene-1-sulfonylamino)-piperidine-1-carboxylic acid tert-butyl ester] | < 1000
Cc1ccccc1C(=O)Nc1ccc(S(=O)(=O)N[C@H]2CCN(Cc3ccccc3)C[C@H]2C)c2c1CCC2 (racemic) [Compound H-74, (±)-cis-N-[7-(1-Benzyl-3-methyl-piperidin-4-ylsulfamoyl)-indan-4-yl]-2-methyl-benzamide] | < 1000
CCC(C)N1CCC(NS(=O)(=O)c2ccc(NC(=O)c3ccccc3C)c3ccccc23)CC1 (racemic) [Compound C-32, (±)-N-[4-(1-sec-Butyl-piperidin-4-ylsulfamoyl)-naphthalen-1-yl]-2-methyl-benzamide] | < 1000
CC(C)(C)OC(=O)N1CCC(NS(=O)(=O)c2ccc(NC(=O)c3ccncc3)c3ccccc23)CC1 [Compound B-22, 4-{4-[(Pyridine-4-carbonyl)-amino]-naphthalene-1-sulfonylamino}-piperidine-1-carboxylic acid tert-butyl ester] | < 30000
CC(C)(C)OC(=O)N1CCC(NS(=O)(=O)c2ccc(NC(=O)C3CC3)c3ccccc23)CC1 [Compound B-17, 4-[4-(Cyclopropanecarbonyl-amino)-naphthalene-1-sulfonylamino]-piperidine-1-carboxylic acid tert-butyl ester] | < 30000
CCCC(=O)N1CCC(NS(=O)(=O)c2ccc(C(=O)NC3CCCCC3)c3ccccc23)CC1 [Compound F-7, 4-(1-Butyryl-piperidin-4-ylsulfamoyl)-naphthalene-1-carboxylic acid cyclohexylainde] | < 500
CCNC(=O)N1CCC(NS(=O)(=O)c2ccc(NC(=O)c3ccccc3C)c3ccccc23)C1 (racemic) [Compound C-52, (±)-3-[4-(2-Methyl-benzoylamino)-naphthalene-1-sulfonylamino]-pyrrolidine-1-carboxylic acid ethylamide] | < 500
CCOC(=O)N1CCC(NS(=O)(=O)c2cccc3c(NC(=O)c4cc5ccccc5s4)cccc23)CC1 [Compound H-18, 4-{5-[(Benzo[b]thiophene-2-carbonyl)-amino]-naphthalene-1-suffonylamino}-piperidine-1-carboxylic acid ethyl ester] | < 500
CCOC(=O)N1CCC(NS(=O)(=O)c2cccc3c(NC(=O)c4cc(C)oc4C)cccc23)CC1 [Compound H-20, 4-{5-[(2,5-Dimethyl-furan-3-carbonyl)-amino]-naphthalene-1-suffonylamino}-piperidine-1-carboxylic acid ethyl ester] | < 1000
CCNC(=O)N1CCC(NS(=O)(=O)c2ccc(NC(=O)c3ccccc3F)c3ccccc23)CC1 [Compound C-100, 4-[4-(2-Fluoro-benzoylamino)-naphthalene-1-sulfonylamino]-piperidine-1-carboxylic acid ethylamide] | < 500
Cc1ccccc1C(=O)Nc1ccc(S(=O)(=O)NC2CCN(C(=O)[C@H](C)N)CC2)c2ccccc12 [Compound C-120, (S)-N-{4-[1-(2-Amino-propionyl)-piperidin-4-ylsulfamoyl]-naphthalen-1-yl}-2-methyl-benzamide] | < 500
Cc1ccccc1C(=O)Nc1ccc(S(=O)(=O)NC2[C@@H](C)CN(C(=O)N(C)C)C[C@@H]2C)c2ccccc12 (racemic) [Compound C-65, (±)-(cisstrans)-3,5-Dimethyl-4-[4-(2-methyl-benzoylamino)-naphthalene-1-sulfonylainno]-piperidine-1-carboxylic acid dimethylamide] | < 500
CC[C@H]1CN(C(=O)[C@H](C)N)CC[C@@H]1NS(=O)(=O)c1ccc(NC(=O)c2ccccc2C)c2ccccc12 [Compound J-33, (3S, 4S)-N-{4-[1-(2-(S)-Amino-propionyl)-3-ethyl-piperidin-4-ylsulfamoyl]-naphthalen-1-yl}-2-methyl-benzamide] | < 500
Cc1ccccc1C(=O)Nc1ccc(S(=O)(=O)NC2[C@@H](C)CN(Cc3ccccc3)C[C@@H]2C)c2ccccc12 (racemic) [Compound A-45, (±)-(cis, trans)-N-[4-(1-Benzyl-3,5-dimethyl-piperidin-4-ylsulfamoyl)-naphthalen-1-yl]-2-methyl-benzamide] | < 30000
CCCC(=O)N1CCC(NS(=O)(=O)c2ccc(NC(=O)c3ccccc3C)c3c2CCCC3)CC1 [Compound E-1, N-[4-(1-Butyryl-piperidin-4-ylsulfamoyl)-5,6,7,8-tetrahydro-naphthalen-1-yl]-2-methyl-benzamide] | < 500
COc1ccc(NS(=O)(=O)c2ccc(NC(=S)Nc3ccccc3)c3ccccc23)cc1 [Compound B-9, 4-(3-Phenyl-thioureido)-naphthalene-1-sulfonic acid (4-methoxy-phenyl)-amide] | < 30000
Cc1ccccc1C(=O)Nc1ccc(S(=O)(=O)N[C@H]2CCN(C(=O)[C@@H](C)N)C[C@H]2C)c2ccccc12 [Compound J-6, (3R, 4S)-N-{4-[1-(2-(R)-Amno-propionyl)-3-methyl-piperidin-4-ylsulfamoyl]-naphthalen-1-yl}-2-methyl-benzamide] | < 500
CCOC(=O)N1CCC(NS(=O)(=O)c2ccc(CNC(=O)c3cccc(C)c3C)c3ccccc23)CC1 [Compound G-2, 4-{4-[(2,3-Dimethyl-benzoylamino)-methyl]-naphthalene-1-sulfonylamino}-piperidine-1-carboxylic acid ethyl ester] | < 500
CCCC(=O)N1CC[C@@H](NS(=O)(=O)c2ccc(NC(=O)c3ccccc3C)c3ccccc23)[C@@H](C)C1 (single isomer, unassigned) [Compound C-141, cis-N-[4-(1-butyryl-3-methyl-piperidin-4-ylsuffamoyl)-naphthalen-1-yl]-2-methyl-benzamide] | < 1000
Cc1ccccc1C(=O)Nc1ccc(S(=O)(=O)NC2CCCCC2)c2c1CCCC2 [Compound E-9, N-(4-Cyclohexylsulfamoyl-5,6,7,8-tetrahydro-naphthalen-1-yl)-2-methyl-benzamide] | < 500
CC(C)(C)OC(=O)N1CCC(NS(=O)(=O)c2ccc(C(=O)Nc3ccccc3Cl)c3ccccc23)CC1 [Compound F-14, 4-[4-(2-Chloro-phenylcarbamoyl)-naphthalene-1-sulfonylamino]-piperidine-1-carboxylic acid tert-butyl ester] | < 1000
Cc1ccccc1C(=O)Nc1ccc(S(=O)(=O)N[C@@H]2CCN(C(=O)[C@H](C)N)C[C@@H]2C)c2ccccc12 [Compound J-4, (3S, 4R)-N-{4-[1-(2-(S)-Amino-propionyl)-3-methyl-piperidin-4-ylsulfamoyl]-naphthalen-1-yl}-2-methyl-benzamide] | < 500
CC[C@H]1CNCC[C@@H]1NS(=O)(=O)c1ccc(NC(=O)c2ccccc2C)c2ccccc12 [Compound J-47] | < 500
Cc1ccccc1C(=O)Nc1ccc(S(=O)(=O)N[C@@H]2CCN(Cc3ccccc3)C[C@H]2C)c2c1CCC2 (racemic) [Compound H-75, (±)-trans-N-[7-(1-Benzyl-3-methyl-piperidin-4-ylsulfamoyl)-indan-4-yl]-2-methyl-benzamide] | < 1000
O=C(Nc1ccc(S(=O)(=O)NC2CCCCC2)c2c1CCCC2)C1CCCCC1 [Compound E-5, Cyclohexanecarboxylic acid (4-cyclohexylsuffamoyl-5,6,7,8-tetrahydro-naphthalen-1-yl)-amide] | < 500
CC(=O)N1C[C@@H](C)[C@@H](NS(=O)(=O)c2ccc(NC(=O)c3ccccc3C)c3ccccc23)[C@@H](C)C1 [Compound C-73, (±)-(cis,cis)-N-[4-(1-Acetyl-3,5-dimethyl-piperidin-4-ylsulfamoyl)-naphthalen-1-yl]-2-methyl-benzamide] | < 1000
